From patent publication US7897765B2, “Therapeutic compounds and uses thereof” (Elixir Pharmaceuticals, Inc., priority 2003, dated 2011)

Target: GHS-R (Homo sapiens, UniProt Q92847)
Experiment: cell based assay of GHS-R antagonist/agonist activity
Design: key: A refers to a compound having antagonist activity with Ki<100 nM in a cell based assay; B refers to a compound having agonist activity with EC50<100 nM in a cell based assay; C refers to a compound having antagonist activity of Ki>100 nM and <1500 nM in a cell based assay; D refers to a compound having antagonist activity with Ki, <100 nM and agonist activity with EC50<100 nM in a cell-based assay; E refers to other exemplary compounds
Conditions: GHS-R antagonist Ki and/or agonist EC50 class
Protocol: Cell-Based Activity Assays. For example, the ability of the compound to modulate accumulation of a second messenger signaling component downstream of GHS-R can be evaluated. For example, inositol phosphates (IP), as a result of Gq signaling in a mammalian cell, e.g., a Cos-7 cells. Other tissue culture cells, Xenopus oocytes, and primary cells can also be used.
Phosphatidylinositol turnover assay. One day after transfection COS-7 cells are incubated for 24 hours with 5 μCi of [^3H]-myo-inositol in 1 ml medium supplemented with 10% fetal calf serum, 2 mM glutamine and 0.01 mg/ml gentamicin per well. Cells are then washed twice in buffer, 20 mM HEPES, pH 7.4, supplemented with 140 mM NaCl, 5 mM KCl, 1 mM MgSO4, 1 mM CaCl2, mM glucose, 0.05% (w/v) bovine serum; and incubated in 0.5 ml buffer supplemented with 10 mM LiCl at 37° C. for 30 min. For some assays, it is also useful to incubate the cells with adenosine deaminase ADA (200 U/mg, Boehringer Mannheim, Germany) for 30 min in a concentration of 1 U/ml.
After incubation with the compound of interest for 45 min at 37° C., cells are extracted with 10% ice-cold perchloric acid and placed on ice for 30 min. The resulting supernatants are neutralized with KOH in HEPES buffer, and [^3H]-inositol phosphate is purified on Bio-Rad AG 1-X8 anion exchange resin as described. Assays can be run in duplicate, triplicate, etc.
Other second messenger assays. Another second messenger that can be evaluated is Ca^2+. Ca^2+ mobilization can be evaluated using a calcium sensitive detector, such as aequorin protein or a dye, e.g., FURA-2. In an exemplary assay, calcium mobilization is evaluated in a recombinant cell that expresses GHS-R and aequorin.
Gene expression assay. HEK293 cells (30 000 cells/well) seeded in 96-well plates are transiently transfected with a mixture of pFA2-CREB and pFR-Luc reporter plasmid (PathDetect™ CREB trans-Reporting System, Stratagene) and nucleic acid encoding GHS. One day after transfection, cells are treated with the compound of interest in an assay volume of 100 μl medium for 5 hrs. After treatment, cells are cultured in low serum (2.5%). After the incubation period, the assay is ended by washing the cells twice with PBS and adding 100 μl luciferase assay reagent (LucLite™, Packard Bioscience). Luminescence is measured (e.g., as relative light units (RLU)) using in a luminometer such as the TopCounter™ (Packard Bioscience) for 5 sec.
IC50 and EC50 values can be determined by nonlinear regression, e.g., using the Prism 3.0 software (GraphPad Software, San Diego).

Sequence of GHS-R (Q92847 whole entry, species assumed): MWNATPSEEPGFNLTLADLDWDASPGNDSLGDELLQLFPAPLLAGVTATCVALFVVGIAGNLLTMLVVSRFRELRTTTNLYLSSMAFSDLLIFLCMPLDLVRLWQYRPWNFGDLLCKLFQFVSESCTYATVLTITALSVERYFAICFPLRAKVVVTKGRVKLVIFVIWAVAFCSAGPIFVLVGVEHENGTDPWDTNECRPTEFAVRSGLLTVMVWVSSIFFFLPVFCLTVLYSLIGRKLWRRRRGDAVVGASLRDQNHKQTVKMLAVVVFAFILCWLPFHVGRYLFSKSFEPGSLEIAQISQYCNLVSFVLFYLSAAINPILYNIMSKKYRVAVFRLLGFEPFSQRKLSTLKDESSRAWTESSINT

| Compound | Activity |
| --- | --- |
| C=CS(=O)(=O)N[C@H](COCc1ccccc1)C(=O)N1CCC2(CC1)CN(S(C)(=O)=O)c1ccccc12 [Compound 147] | E |
| COC(=O)CC(=O)N1CC2(CCN(C(=O)[C@@H](COCc3ccccc3)NC(=O)CN(C)C)CC2)c2ccccc21 [Compound 72] | E |
| CC(=O)N(C1CCN(C)CC1)[C@H](COCc1ccccc1)C(=O)N1CCC2(CC1)CN(S(C)(=O)=O)c1ccccc12 [Compound 88] | E |
| CC(C)(C)OC(=O)N1CCC(CNC(COCc2ccccc2)C(=O)N2CCC3(CC2)CN(S(C)(=O)=O)c2ccccc23)CC1 (stereo not shown) [Compound 103] | E |
| CC(C)(C)NC(=S)N[C@H](COCc1ccccc1)C(=O)N1CCC2(CC1)CN(S(C)(=O)=O)c1ccccc12 [Compound 85] | E |
| CS(=O)(=O)N1CC2(CCN(C(=O)[C@@H](COCc3ccccc3)NC(=O)C[C@@H]3CCCN3)CC2)c2ccccc21 [Compound 23] | C (C refers to a compound having antagonist activity of Ki>100 nM and <1500 nM in a cell based assay) |
| CN(C)CC(=O)N[C@H](COCc1ccccc1)C(=O)N1CCC2(CC1)CN(S(C)(=O)=O)c1ccccc12 [Compound 20] | C (C refers to a compound having antagonist activity of Ki>100 nM and <1500 nM in a cell based assay) |
| CC(C)(C)OC(=O)N[C@H](COCc1ccccc1)C(=O)N1CCC2(CC1)CN(S(C)(=O)=O)c1ccccc12 [Compound 9] | A (A refers to a compound having antagonist activity with Ki<100 nM in a cell based assay) |
| CC(C)NCCCS(=O)(=O)N[C@H](COCc1ccccc1)C(=O)N1CCC2(CC1)CN(S(C)(=O)=O)c1ccccc12 [Compound 148] | A (A refers to a compound having antagonist activity with Ki<100 nM in a cell based assay) |
| CN1CCC(C(=O)N[C@H](CC(=O)N2CCC3(CC2)CN(S(C)(=O)=O)c2ccccc23)Cc2c[nH]c3ccccc23)CC1 [Compound 141] | E |
| CS(=O)(=O)N1CC2(CCN(C(=O)[C@@H](COCc3ccccc3)NS(=O)(=O)CCCNC3CC3)CC2)c2ccccc21 [Compound 157] | E |
| CN1CCN(CC(=O)N[C@H](COCc2ccccc2)C(=O)N2CCC3(CC2)CN(S(C)(=O)=O)c2ccccc23)CC1 [Compound 91] | E |
| CC(C)(C)CC(=O)N[C@H](COCc1ccccc1)C(=O)N1CCC2(CC1)CN(S(C)(=O)=O)c1ccccc12 [Compound 52] | E |
| CC(C)(C)NCCS(=O)(=O)N[C@H](COCc1ccccc1)C(=O)N1CCC2(CC1)CN(S(C)(=O)=O)c1ccccc12 [Compound 145] | E |
| CN(C)C[C@H]1CCC[C@@H](C(=O)N[C@H](COCc2ccccc2)C(=O)N2CCC3(CC2)CN(S(C)(=O)=O)c2ccccc23)C1 [Compound 10] | D (D refers to a compound having antagonist activity with Ki, <100 nM and agonist activity with EC50<100 nM in a cell-based assay) |
| CS(=O)(=O)N1CC2(CCN(C(=O)[C@@H](COCc3ccccc3)NC(=O)C3CNC3)CC2)c2ccccc21 [Compound 36] | C (C refers to a compound having antagonist activity of Ki>100 nM and <1500 nM in a cell based assay) |
| CN(C)CCCS(=O)(=O)N[C@H](COCc1ccccc1)C(=O)N1CCC2(CC1)CN(S(C)(=O)=O)c1ccccc12 [Compound 156] | E |
| CC(C)N1CCC=C(C(=O)N[C@H](COCc2ccccc2)C(=O)N2CCC3(CC2)CN(S(C)(=O)=O)c2ccccc23)C1 [Compound 12] | A (A refers to a compound having antagonist activity with Ki<100 nM in a cell based assay) |
| CC(=O)OCC(=O)N[C@H](COCc1ccccc1)C(=O)N1CCC2(CC1)CN(S(C)(=O)=O)c1ccccc12 [Compound 34] | C (C refers to a compound having antagonist activity of Ki>100 nM and <1500 nM in a cell based assay) |
| CC(=O)N(CC1CCN(C(=O)OC(C)(C)C)CC1)[C@H](COCc1ccccc1)C(=O)N1CCC2(CC1)CN(S(C)(=O)=O)c1ccccc12 [Compound 108] | E |

| Compound | Activity |
| --- | --- |
| Cc1ccc(CSC[C@H](NC(=O)C2CCN(C)CC2)C(=O)N2CCC3(CC2)CN(S(C)(=O)=O)c2ccccc23)cc1 [Compound 140] | E |
| CC(C)(C)OC(=O)N[C@H](COCc1ccccc1)C(=O)N1CCC2(CC1)CN(S(=O)(=O)Cc1ccccc1)c1ccccc12 [Compound 67] | E |
| CCCN1CCC(C(=O)N[C@H](COCc2ccccc2)C(=O)N2CCC3(CC2)CN(S(C)(=O)=O)c2ccccc23)CC1 [Compound 38] | C (C refers to a compound having antagonist activity of Ki>100 nM and <1500 nM in a cell based assay) |
| CN1CCC(S(=O)(=O)N[C@H](COCc2ccccc2)C(=O)N2CCC3(C=Cc4ccccc43)CC2)CC1 [Compound 154] | C (C refers to a compound having antagonist activity of Ki>100 nM and <1500 nM in a cell based assay) |
| CN(C)C(C)(C)C(=O)N[C@H](COCc1ccccc1)C(=O)N1CCC2(CC1)CN(S(C)(=O)=O)c1ccccc12 [Compound 131] | B (B refers to a compound having agonist activity with EC50<100 nM in a cell based assay) |
| CN1CCC(C(=O)NC(Cc2ccc3ccccc3c2)C(=O)N2CCC3(CC2)CN(S(C)(=O)=O)c2ccccc23)CC1 (stereo not shown) [Compound 138] | E |
| CC(C)N1CCC(C(=O)N[C@H](COCc2ccccc2)C(=O)N2CCC3(CC2)CN(S(C)(=O)=O)c2ccccc23)CC1 [Compound 110] | E |
| C[C@H](N)C(=O)N[C@H](COCc1ccccc1)C(=O)N1CCC2(CC1)CN(S(C)(=O)=O)c1ccccc12 [Compound 78] | E |
| CN1CCC(C(=O)N[C@@H](Cc2ccccc2)C(=O)N2CCC3(CC2)CN(S(C)(=O)=O)c2ccccc23)CC1 [Compound 42] | C (C refers to a compound having antagonist activity of Ki>100 nM and <1500 nM in a cell based assay) |
| CCN1CCC=C(C(=O)N[C@H](COCc2ccccc2)C(=O)N2CCC3(CC2)CN(S(C)(=O)=O)c2ccccc23)C1.Cl [Compound 2] | D (D refers to a compound having antagonist activity with Ki, <100 nM and agonist activity with EC50<100 nM in a cell-based assay) |
| COCC(=O)N[C@H](COCc1ccccc1)C(=O)N1CCC2(CC1)CN(S(C)(=O)=O)c1ccccc12 [Compound 31] | C (C refers to a compound having antagonist activity of Ki>100 nM and <1500 nM in a cell based assay) |
| CN(C)CC(=O)N1CC2(CCN(C(=O)[C@@H](COCc3ccccc3)NC(=O)OC(C)(C)C)CC2)c2ccccc21 [Compound 63] | E |
| CCN(C)CCC(=O)N[C@H](COCc1ccccc1)C(=O)N1CCC2(CC1)CN(S(C)(=O)=O)c1ccccc12 [Compound 15] | C (C refers to a compound having antagonist activity of Ki>100 nM and <1500 nM in a cell based assay) |
| CCN(CC)CCCS(=O)(=O)N(C)[C@H](COCc1ccccc1)C(=O)N1CCC2(CC1)CN(S(C)(=O)=O)c1ccccc12 [Compound 162] | A (A refers to a compound having antagonist activity with Ki<100 nM in a cell based assay) |
| CC(C)(C)OC(=O)N[C@H](COCc1ccccc1)C(=O)N1CCC2(CC1)CN(C(=O)Cn1ccnc1)c1ccccc12 [Compound 66] | E |
| CN1CCC=C(C(=O)N[C@H](COCc2ccccc2)C(=O)N2CCC3(CC2)CN(S(C)(=O)=O)c2ccccc23)C1 [Compound 7] | D (D refers to a compound having antagonist activity with Ki, <100 nM and agonist activity with EC50<100 nM in a cell-based assay) |
| CN(C)CC(=O)N[C@H](COCc1ccccc1)C(=O)N1CCC2(CC1)CN(S(=O)(=O)Cc1ccccc1)c1ccccc12 [Compound 26] | C (C refers to a compound having antagonist activity of Ki>100 nM and <1500 nM in a cell based assay) |
| CN1CCC(C(=O)N[C@H](Cc2ccccc2)C(=O)N2CCC3(CC2)CN(S(C)(=O)=O)c2ccccc23)CC1 [Compound 45] | C (C refers to a compound having antagonist activity of Ki>100 nM and <1500 nM in a cell based assay) |
| CC(C)(C)OC(=O)N[C@H](COCc1ccccc1)C(=O)N1CCC2(CC1)CN(C(=O)CC(=O)O)c1ccccc12 [Compound 62] | E |
| CN1CCCC(C(=O)N[C@H](COCc2ccccc2)C(=O)N2CCC3(CC2)CN(S(C)(=O)=O)c2ccccc23)C1 (stereo partly shown) [Compound 13] | A (A refers to a compound having antagonist activity with Ki<100 nM in a cell based assay) |
